Among the data in patent US11208405B2, “Pyrrole derivatives as PLK1 inhibitors” (SENTINEL ONCOLOGY LIMITED, priority 2017, dated 2021) are GI50 values, retold here.

Structures can show the parent of a compound that is named as a salt.

What is called GI50 is the concentration at which growth is held to half of that of the control.

The assay has as its system HCT116 cells. The experiment in a line: Effects on HCT116 colorectal cancer cell viability (cell titre blue, 72 hours). The format is cell-based. As to conditions: Homo sapiens, HCT-116, HCT116 cell line. On the procedure: Assay to Measure the Effects of Compounds of the Invention on HCT116 Colorectal Cancer Cell Viability
The following protocol was used to measure the effects of compounds of the invention on HCT116 cell viability.
1. HCT116 cells were grown in RPM11640 media supplemented with Glutamax and 10% FBS in a 37° C./5% CO2 incubator.
2. Growing culture of HCT116 cells were trypsinised, counted and diluted to give 10,000 cells/mL in an appropriate volume, allowing at least 6 mL of cells per plate.
3. 200 μL of PBS were added to all the outer wells of a flat-bottomed (8×12) 96-well TC plate. 100 μL of media were added only to wells in column 11 of the plates (these wells provided a blank for the cell titre blue assay). Two compounds were assayed on each plate.
4. 100 ul of 10,000 cells/mL HCT116s were plated in rows B-G of each plate.
5. The cells were incubated (37° C. 5% CO2) for 24 hours before treating with compounds.
6. An 8 mM compound stock in DMSO was prepared for all compounds to be tested. 2.5 μL of the compound stock was added to 1000 μL growth medium in a 96-well deep well block and serial dilutions were prepared across the plate by transferring 500 μL into wells containing 500 μL growth medium+0.25% DMSO to give eight concentrations of compound (this ensured a constant amount of DMSO at all concentrations of compound). When making up growth medium+DMSO, an amount of 5 ml was allowed per compound to be diluted.
7. 3 rows of cells were treated with 100 μL/well from each row on the dilution plate so that each cell plate is treated with a single compound. This gave a final volume in all wells of 200 μL and a titration of compound from a final concentration of 10 uM down to 78 nM.
8. The cells were incubated (37° C. 5% CO2) for 72 hours.
9. 5 ul cell titre blue reagent (Promega) were added to all wells except the edge wells (which contain PBS only) and incubated (37° C. 5% CO2) for 2.5-3 hours.
10. Fluorescence was measured on a suitable plate reader using a 530-570 nm filter set for excitation and a 580-620 nm filter set for fluorescence emission.
11. Data were analysed using an appropriate graphing package (such as GraphPad Prism). Data were expressed as the concentration of compound causing a 50% inhibition of cell viability or GI50.
`O=C(NCCN[C@H]1CCOC1)c1ccc(-c2ccc(-c3ccc(Cl)cc3)n2-c2cnccc2C(F)(F)F)cc1` [Example 96] had a GI50 of 30 nM.

Turning to `CN(C)CCCNC(=O)c1ccc(-c2ccc(-c3ccc(Cl)cc3)n2-c2ncccc2C(F)(F)F)cc1` [Example 80, hydrochloride], the GI50 is 3920 nM.

In the case of `CN(C)CCNC(=O)c1ccc(-c2ccc(-c3ccc(Cl)cc3)n2-c2ccccc2C(F)(F)F)s1` [Example 99, hydrochloride], the GI50 is 40 nM.

For the molecule `COc1cc(C(=O)NCCCN(C)C)ccc1-c1ccc(-c2ccc(Cl)cc2)n1-c1cnccc1C(F)(F)F` [Example 74, hydrochloride], the GI50 was 130 nM.

For the molecule `COc1ccc(C(=O)NCCN(C)C)cc1-c1ccc(-c2ccc(Br)cc2)n1-c1ccccc1` [Example 20, hydrochloride], the GI50 is 3940 nM.

Molecule `O=C(Cc1ccc(-c2ccc(-c3ccc(Cl)cc3)n2-c2ccccc2C(F)(F)F)cc1)NCCN1CCNCC1` [Example 101, hydrochloride] registered a GI50 of 60 nM.

`CN(C)CCNC(=O)c1ccc(-c2onc(-c3ccc(Cl)cc3)c2-c2ccccc2C(F)(F)F)cc1` [Example 92, Hydrochloride] displayed a GI50 of 30 nM.

In turn, `CN(C)CCNC(=O)c1cccc(-c2ccc(-c3ccc(Oc4ccccc4)cc3)n2-c2ccc(F)cc2)c1` [Example 8, hydrochloride] yielded a GI50 of 1850 nM.

For the molecule `CN(C)CCCNC(=O)c1ccc(-n2ncc(-c3ccc(Cl)cc3)c2-c2ccccc2C(F)(F)F)cc1` [Example 105, hydrochloride], halving of growth (GI50) required 100 nM.

In turn, `CN(C)CCNC(=O)c1ccc(-c2ccc(-c3ccc(Cl)cn3)n2-c2ccccc2C(F)(F)F)cc1` [Example 75, hydrochloride] registered a GI50 of 150 nM.

`CN(C)CCNC(=O)c1ccc(-c2ccc(-c3ccccc3)n2-c2cnccc2C(F)(F)F)c(Cl)c1` [Example 67, hydrochloride] yielded a GI50 of 70 nM.

Molecule `CN(C)CCNC(=O)c1ccc(-c2[nH]nc(-c3ccc(Cl)cc3)c2-c2ccccc2C(F)(F)F)cc1` [Example 93, 4-[3-(4-chlorophenyl)-4-[2-(trifluoromethyl)phenyl]-1H-pyrazol-5-yl]-N-[2-(dimethylamino)ethyl] Benzamide Hydrochloride] registered a GI50 of 260 nM.

`CN(C)CCCNC(=O)c1ccc(-c2ccc(-c3ccc(Cl)cc3)n2-c2cccc(C(F)(F)F)c2)cc1` [Example 78, hydrochloride]: halving of growth (GI50) required 2130 nM.

`CC(C)Cc1ccc(C(F)(F)F)c(-n2c(-c3ccc(Cl)cc3)ccc2-c2ccc(C(=O)NCCCN(C)C)cc2)c1` [Example 64, hydrochloride] had a GI50 of 1700 nM.

The molecule `O=C(c1ccc(-c2ccc(-c3ccc(Cl)cc3)n2-c2ccccc2C(F)(F)F)cc1)N1CCNCC1` [Example 84, hydrochloride] registered a GI50 of 190 nM.

On to `CN(C)CCCNc1cccc(-c2ccc(-c3ccc(Br)cc3)n2-c2ccccc2C(F)(F)F)c1` [Example 16, N-[3-[5-(4-Bromophenyl)-1-[2-(trifluoromethyl)phenyl]pyrrol-2-yl]phenyl]-N′,N′-dimethyl-propane-1,3-diamine Hydrochloride], for which the GI50 was 2720 nM.

For `CN(C)CCOCc1ccc(-c2ccc(-c3ccc(Br)cc3)n2-c2ccccc2C(F)(F)F)cc1` [Example 45, 2-[[4-[5-(4-Bromophenyl)-1-[2-(trifluoromethyl)phenyl]pyrrol-2-yl]phenyl]methoxy]-N,N-dimethyl-ethanamine Hydrochloride], the GI50 stood at 350 nM.

For `CN(C)CCNC(=O)c1ccc(-c2ccc(-c3ccccc3)n2-c2ccccc2C(F)(F)F)cc1Cl` [Example 39, hydrochloride], the GI50 turned out to be 350 nM.

For `CN(C)CC(=O)NCc1cccc(-c2ccc(-c3ccc(Br)cc3)n2-c2ccccc2C(F)(F)F)c1` [Example 21, N-[[3-[5-(4-Bromophenyl)-1-[2-(trifluoromethyl)phenyl]pyrrol-2-yl]phenyl]methyl]-2-(dimethylamino)acetamide Hydrochloride], the concentration for 50% growth inhibition (GI50) was found to be 1060 nM.
